Measurements taken from patent publication US20210379042A1, “METHODS FOR MONITORING TUMOR LYSIS SYNDROME” (Sumitomo Dainippon Pharma Oncology, Inc., priority 2018, published 2021).

Legend:
[1] = test system: patients having newly diagnosed AML; assay: Example 5: alvocidib plus daunorubicin/cytarabine (ACD) with TLS monitoring, treatment-emergent adverse events classified as TLS; assay type: in vivo, human
Experimental: This study will evaluate the safety and efficacy of alvocidib in combination with cytarabine/daunorubicin (7+3) in patients with newly diagnosed AML. Treatment consists of increasing dose levels of alvocidib starting at 20 mg/m^2 as a 30-minute IV bolus followed by 30 mg/m^2 over 4 hours on days 1-3, cytarabine 100 mg/m^2/day by continuous IV infusion on days 5-11, followed by (e.g., followed about 30 minutes later by) daunorubicin 60 mg/m^2 IV on days 5-7. Reinduction therapy with alvocidib (same dose as induction) days 1-3, followed by cytarabine 100 mg/m^2/day continuous IV on days 5-9, and daunorubicin 45 mg/m^2 IV days 5-6 is recommended in patients with >10% and >5% cellularity and blasts, respectively.
For patients at high risk for TLS, including those with risk scores of greater than or equal to 2 according to Table 1, those with monocytic leukemia phenotype, or those with a history of FLT3 positive AML, monitoring will include: (i) obtaining a STAT serum potassium at the end of an alvocidib infusion; (ii) obtaining a serum potassium 2 hours after the end of an alvocidib infusion, (iii) obtaining a full TLS panel 4 hours after the end of an alvocidib infusion, and (iv) monitoring fibrinogen levels at baseline and then as clinically indicated. If there is evidence of clinically meaningful TLS, a TLS panel will be obtained every 2 hours during the first 24 hours after the end of an alvocidib infusion (assessment of LDH levels at least once every 24 hours is also recommended). If there is no evidence of clinically meaningful TLS, a TLS panel will be obtained every 4 hours during the first 24 hours after the end of an alvocidib infusion (assessment of LDH levels at least once every 24 hours is also recommended). If, after the first 24 hours after the end of an alvocidib infusion, there is no evidence of TLS, a TLS panel will be obtained approximately every 6 hours for the remainder of alvocidib treatment, and then every 12 hours after completion of alvocidib during daunorubicin and cytarabine treatment (assessment of LDH levels at least once every 24 hours is also recommended).
For patients not at high risk for TLS, tumor lysis evaluations will be monitored at the start of alvocidib treatment and approximately every 4 hours thereafter for 24 hours. Laboratory studies during this period will be run as a “STAT” to ensure the results are available in a timely manner. If there is no evidence of TLS during first the 24 hours, then tumor lysis evaluations will be monitored approximately every 6-8 hours for the remainder of alvocidib treatment, and then every 12 hours after the completion of alvocidib during cytarabine and daunorubicin treatment. Fibrinogen levels will be monitored at baseline and then as clinically indicated.
Patients were treated with ACD according to a treatment regimen similar to that described in Example 2, and monitored for TLS according to the monitoring protocols described in Example 2. Briefly, treatment consisted of increasing dose levels of alvocidib starting at 20 mg/m^2 as a 30-minute (±10 minutes) IV bolus followed by 30 mg/m^2 as a 4-hour (±15 minutes) IV infusion on days 1-3, followed by daunorubicin 60 mg/m^2 IV on days 5-7 via IV bolus of up to 15 minutes (±5 minutes) in duration each day, followed by (e.g., followed immediately by) cytarabine 100 mg/m^2/day by 24-hour (±2 hours) continuous IV infusion on days 5-11. Reinduction therapy with alvocidib (same dose as induction) days 1-3, followed by daunorubicin 45 mg/m^2 IV via IV bolus of up to 15 minutes (±5 minutes) in duration each day on days 5-6, followed by (e.g., followed immediately by) cytarabine 100 mg/m^2/day continuous, 24-hour IV infusion (±2 hours) on days 5-9, was recommended in patients with evidence of residual leukemia, defined as >5% bone marrow blasts plus >10% cellularity, based on day 14 (±3 days) bone marrow. […]

[2] = test system: cancer patients being treated with alvocidib; assay: Clinical trials using a TLS monitoring protocol described herein: deaths attributed to TLS; assay type: in vivo, human; conditions: to date
From the text: Current protocols for monitoring the development of TLS in patients vary greatly due to interindividual clinician experience and different standards of care among institutions. The risk for and rapid development of TLS in cancer patients being treated with alvocidib presents a need for more precise but clinically practical TLS monitoring protocols that allow subjects to remain on alvocidib treatment and avoid dose-limiting TLS. To date, there have been no deaths attributed to TLS in clinical trials using a TLS monitoring protocol described herein.

[3] = statement without data; prodrugs described in WO 2016/187316 and WO 2018/094275; cited from earlier work
[4] = Study Total, all dose levels (N = 31)
[5] = alvocidib 30/40 mg/m^2 (bolus/infusion) days 1-3 with daunorubicin and cytarabine (N = 3)
[6] = alvocidib 30/60 mg/m^2 (bolus/infusion) days 1-3 with daunorubicin and cytarabine (N = 22)

Row | Structure (SMILES) | Tumor lysis syndrome, treatment-emergent adverse events, number of patients [1, 4] | Tumor lysis syndrome, treatment-emergent adverse events, percent of patients [1, 4] [%] | Tumor lysis syndrome, treatment-emergent adverse events, number of patients ([1]; alvocidib 20/30 mg/m^2 (bolus/infusion) days 1-3 with daunorubicin and cytarabine (N = 3)) | Tumor lysis syndrome, treatment-emergent adverse events, number of patients [1, 5] | Tumor lysis syndrome, treatment-emergent adverse events, percent of patients [1, 5] [%] | Tumor lysis syndrome, treatment-emergent adverse events, number of patients ([1]; alvocidib 30/50 mg/m^2 (bolus/infusion) days 1-3 with daunorubicin and cytarabine (N = 3)) | Tumor lysis syndrome, treatment-emergent adverse events, number of patients [1, 6] | Tumor lysis syndrome, treatment-emergent adverse events, percent of patients [1, 6] [%] | deaths attributed to TLS [2] | oral bioavailability [3]
1 | CN1CC[C@H](c2c(O)cc(O)c3c(=O)cc(-c4ccccc4Cl)oc23)[C@H](O)C1 [Alvocidib, 2-(2-chlorophenyl)-5,7-dihydroxy-8-[(3 S,4R)-3-hydroxy-1-methylpiperidin-4-yl]chromen-4-one] | 8 | 25.8 | 0 | 1 | 33.3 | 0 | 7 | 31.8 | no deaths | 
2 | CN1CC[C@H](c2c(OP(=O)(O)O)cc(O)c3c(=O)cc(-c4ccccc4Cl)oc23)[C@H](O)C1 [Ia] |  |  |  |  |  |  |  |  |  | orally bioavailable
